Test results from BigSolDB 2.1.

CN1COCN(Cc2cnc(Cl)s2)C1=N[N+](=O)[O-]
solubility (mole fraction)
Conditions | 278.15 K | 283.15 K | 288.15 K | 293.15 K | 298.15 K | 303.15 K | 308.15 K | 313.15 K | 318.15 K | 323.15 K
in 1,4-dioxane | – | – | 0.00242 | 0.00311 | 0.00395 | 0.00496 | 0.00626 | 0.00763 | 0.00958 | 0.0117
in DMAc | 0.0654 | 0.0728 | 0.0802 | 0.0888 | 0.0976 | 0.107 | 0.118 | 0.129 | 0.14 | 0.152
in DMSO | – | – | 0.0672 | 0.0776 | 0.0885 | 0.101 | 0.115 | 0.13 | 0.147 | 0.164
in acetonitrile | 0.00675 | 0.00854 | 0.0106 | 0.0131 | 0.0161 | 0.0196 | 0.0238 | 0.0288 | 0.0349 | 0.0414
in water | 7.29e-05 | 9.97e-05 | 0.000132 | 0.000182 | 0.000241 | 0.000322 | 0.000418 | 0.000538 | 0.000696 | 0.000885
